In ChEMBL document CHEMBL1201862, “PubChem BioAssay data set” (2004):
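Cultured in 96-well plates, cells were exposed to test compound for 48 hours across five concentrations. GI50 = concentration required for 50% inhibition of growth.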 Active and inactive are the calls of the source. Cut-off read from the data, not from the text of the source: active = GI50 up to about 1.1 µM and inactive = higher.

Legend:
Experiment in all cases: NCI tumour cell line growth inhibition, 48 h
786-0 = tested on: 786-0
DU-145 = tested on: DU-145
EKVX = tested on: EKVX
HCC 2998 = tested on: HCC 2998
HCT-15 = tested on: HCT-15
HOP-92 = tested on: HOP-92
M14 = tested on: M14
MDA-MB-231 = tested on: MDA-MB-231
MOLT-4 = tested on: MOLT-4
NCI-H226 = tested on: NCI-H226
NCI-H23 = tested on: NCI-H23
NCI-H460 = tested on: NCI-H460
OVCAR-3 = tested on: OVCAR-3
RXF 393 = tested on: RXF 393
SF-268 = tested on: SF-268
SW-620 = tested on: SW-620
UACC-257 = tested on: UACC-257
MCF7 = tested on: MCF7
SK-OV-3 = tested on: SK-OV-3

| Structure (SMILES) | GI50 (786-0) | GI50 (DU-145) | GI50 (EKVX) | GI50 (HCC 2998) | GI50 (HCT-15) [µM] | GI50 (HOP-92) | GI50 (M14) | GI50 (MDA-MB-231) | GI50 (MOLT-4) | GI50 (NCI-H226) | GI50 (NCI-H23) | GI50 (NCI-H460) | GI50 (OVCAR-3) | GI50 (RXF 393) | GI50 (SF-268) | GI50 (SW-620) | GI50 (UACC-257) | GI50 (MCF7) | GI50 (SK-OV-3) |
| --- | --- | --- | --- | --- | --- | --- | --- | --- | --- | --- | --- | --- | --- | --- | --- | --- | --- | --- | --- |
| O=c1[nH]c2c(S)nc(O)nc2n1-c1ccccc1 | > 100 µM (inactive) | > 100 µM (inactive) | > 100 µM (inactive) | > 100 µM (inactive) | > 100 | > 100 µM (inactive) | > 100 µM (inactive) | > 100 µM (inactive) | > 100 µM (inactive) | > 100 µM (inactive) | > 100 µM (inactive) | > 100 µM (inactive) | > 100 µM (inactive) | > 100 µM (inactive) | > 100 µM (inactive) | > 100 µM (inactive) | > 100 µM (inactive) |  |  |
| CC(=O)O[C@H]1C(=O)[C@@]2(C)[C@H]([C@H](OC(=O)c3ccccc3)[C@]3(O)C[C@H](OC(=O)[C@H](O)[C@@H](NC(=O)c4ccccc4)C4CCCCC4)C(C)=C1C3(C)C)[C@]1(OC(C)=O)CO[C@@H]1C[C@@H]2O | < 0.01 µM (active) |  | 3 µM (inactive) | < 0.01 µM (active) | 0.12 | < 0.0174 µM (active) | < 0.01 µM (active) | < 0.01 µM (active) | < 0.01 µM (active) | < 0.01 µM (active) | < 0.01 µM (active) | < 0.01 µM (active) | < 0.01 µM (active) | < 0.01 µM (active) | < 0.01 µM (active) | < 0.01 µM (active) |  | < 0.01 µM (active) | < 0.01 µM (active) |
| N#Cc1c(N2CCCC2)ncn(Cc2ccccc2)c1=O | > 100 µM (inactive) | > 100 µM (inactive) | > 100 µM (inactive) | > 100 µM (inactive) | > 100 | > 100 µM (inactive) | > 100 µM (inactive) |  | > 100 µM (inactive) | > 100 µM (inactive) |  | > 100 µM (inactive) | > 100 µM (inactive) | > 100 µM (inactive) | > 100 µM (inactive) | > 100 µM (inactive) | > 100 µM (inactive) |  | > 100 µM (inactive) |
| COC(C/C(=C/CO[Si](C(C)C)(C(C)C)C(C)C)C(=O)N(COCC[Si](C)(C)C)c1ccccc1I)OC | 31.4 µM (inactive) | > 100 µM (inactive) |  | 43.9 µM (inactive) | 41.1 | 42 µM (inactive) | 26.6 µM (inactive) | > 100 µM (inactive) | 16.2 µM (inactive) | 36 µM (inactive) | 17.3 µM (inactive) | 33.4 µM (inactive) | 17.8 µM (inactive) |  |  | 33.5 µM (inactive) | 20 µM (inactive) |  | > 100 µM (inactive) |
| CCOC(=O)Nc1[nH]cc(-c2ccccc2)c1C#N | > 100 µM (inactive) | > 100 µM (inactive) | > 100 µM (inactive) |  | > 100 |  | > 100 µM (inactive) | > 100 µM (inactive) | > 100 µM (inactive) | > 100 µM (inactive) | > 100 µM (inactive) |  | > 100 µM (inactive) |  | > 100 µM (inactive) | > 100 µM (inactive) |  | > 100 µM (inactive) | > 100 µM (inactive) |
| CC(=O)OC1OC(c2ccoc2)C[C@@]12C1CCC3O[C@]3(C)[C@]1(C)[C@H](OC(C)=O)[C@H](OC(C)=O)[C@H]2C (some centres not stated) | > 37.5 µM (inactive) |  | > 37.5 µM (inactive) | > 37.5 µM (inactive) | > 37.5 | > 37.5 µM (inactive) | > 37.5 µM (inactive) | > 37.5 µM (inactive) | 18.5 µM (inactive) | > 37.5 µM (inactive) | 30.3 µM (inactive) | > 37.5 µM (inactive) | > 37.5 µM (inactive) | > 37.5 µM (inactive) |  | > 37.5 µM (inactive) | > 37.5 µM (inactive) | > 37.5 µM (inactive) | > 37.5 µM (inactive) |
| N#CCCC1(CCC#N)CCCCCCCCC(CCC#N)(CCC#N)C(=O)C1=O | > 100 µM (inactive) | > 100 µM (inactive) | > 100 µM (inactive) | > 100 µM (inactive) | > 100 | > 100 µM (inactive) | > 100 µM (inactive) |  |  | > 100 µM (inactive) | > 100 µM (inactive) | > 100 µM (inactive) | > 100 µM (inactive) |  | > 100 µM (inactive) | > 100 µM (inactive) | 55.6 µM (inactive) | > 100 µM (inactive) | > 100 µM (inactive) |
| c1ccc2/c3[nH]/c(c2c1)=N\c1ccc(cc1)-c1nc2cc(ccc2o1)/N=c1/[nH]/c(c2ccccc12)=N/c1ccc2nc(oc2c1)-c1ccc(cc1)\N=3 | > 100 µM (inactive) | > 100 µM (inactive) | > 100 µM (inactive) | 6.9 µM (inactive) | > 100 |  | > 100 µM (inactive) |  | > 100 µM (inactive) |  | > 100 µM (inactive) | 51.8 µM (inactive) |  | > 100 µM (inactive) | > 100 µM (inactive) | > 100 µM (inactive) | > 100 µM (inactive) | > 100 µM (inactive) |  |
| Cc1ccc(C)n2c1nc1cc3ccccc3cc12 | 36.2 µM (inactive) | 51.9 µM (inactive) | 64.6 µM (inactive) |  | 4.92 | 8.75 µM (inactive) | 42.6 µM (inactive) |  | 23.3 µM (inactive) | 36 µM (inactive) | 25.2 µM (inactive) |  | 25.1 µM (inactive) | 12.3 µM (inactive) | 64 µM (inactive) | 33.1 µM (inactive) | 49.2 µM (inactive) | 1.14 µM (inactive) | 32.4 µM (inactive) |
| C/C(=N\[N+](C)(C)C)C(c1ccccc1)C1(c2ccccc2)C(c2ccccc2)=C1c1ccccc1 (configuration not stated) | > 100 µM (inactive) |  | 40.7 µM (inactive) | > 100 µM (inactive) | 36.9 | 50.9 µM (inactive) | > 100 µM (inactive) |  | > 100 µM (inactive) | 19.4 µM (inactive) | > 100 µM (inactive) | > 100 µM (inactive) | > 100 µM (inactive) | 22 µM (inactive) |  | > 100 µM (inactive) | > 100 µM (inactive) |  | > 100 µM (inactive) |
| C#CCNC(Cc1ccccc1)C(=O)O (configuration not stated) | > 100 µM (inactive) | > 100 µM (inactive) | > 100 µM (inactive) | > 100 µM (inactive) | > 100 | > 100 µM (inactive) | > 100 µM (inactive) | > 100 µM (inactive) | > 100 µM (inactive) | > 100 µM (inactive) | > 100 µM (inactive) | > 100 µM (inactive) | > 100 µM (inactive) | > 100 µM (inactive) | > 100 µM (inactive) | > 100 µM (inactive) | > 100 µM (inactive) |  | > 100 µM (inactive) |
| Cc1cccc2c(=O)c3cccc([C@@H](C)C(=O)O)c3oc12 | > 100 µM (inactive) | > 100 µM (inactive) | > 100 µM (inactive) | > 100 µM (inactive) | > 100 | > 100 µM (inactive) | > 100 µM (inactive) | > 100 µM (inactive) | > 100 µM (inactive) | > 100 µM (inactive) | > 100 µM (inactive) | > 100 µM (inactive) | > 100 µM (inactive) |  | > 100 µM (inactive) | > 100 µM (inactive) | > 100 µM (inactive) |  | > 100 µM (inactive) |
